Data published in US8198438B2, “Pyrrolotriazine kinase inhibitors” (Bristol-Myers Squibb Company, priority 2007, dated 2012).

What was measured:
Assay type in all cases: biochemical
FLT3 = target: T1, FLT3 (Homo sapiens, UniProt P36888); assay: FLT3 kinase assay; conditions: ATP 200 μM; FLT3 4.5 nM; Caliper LabChip 3000
T1 sequence (P36888 27-993): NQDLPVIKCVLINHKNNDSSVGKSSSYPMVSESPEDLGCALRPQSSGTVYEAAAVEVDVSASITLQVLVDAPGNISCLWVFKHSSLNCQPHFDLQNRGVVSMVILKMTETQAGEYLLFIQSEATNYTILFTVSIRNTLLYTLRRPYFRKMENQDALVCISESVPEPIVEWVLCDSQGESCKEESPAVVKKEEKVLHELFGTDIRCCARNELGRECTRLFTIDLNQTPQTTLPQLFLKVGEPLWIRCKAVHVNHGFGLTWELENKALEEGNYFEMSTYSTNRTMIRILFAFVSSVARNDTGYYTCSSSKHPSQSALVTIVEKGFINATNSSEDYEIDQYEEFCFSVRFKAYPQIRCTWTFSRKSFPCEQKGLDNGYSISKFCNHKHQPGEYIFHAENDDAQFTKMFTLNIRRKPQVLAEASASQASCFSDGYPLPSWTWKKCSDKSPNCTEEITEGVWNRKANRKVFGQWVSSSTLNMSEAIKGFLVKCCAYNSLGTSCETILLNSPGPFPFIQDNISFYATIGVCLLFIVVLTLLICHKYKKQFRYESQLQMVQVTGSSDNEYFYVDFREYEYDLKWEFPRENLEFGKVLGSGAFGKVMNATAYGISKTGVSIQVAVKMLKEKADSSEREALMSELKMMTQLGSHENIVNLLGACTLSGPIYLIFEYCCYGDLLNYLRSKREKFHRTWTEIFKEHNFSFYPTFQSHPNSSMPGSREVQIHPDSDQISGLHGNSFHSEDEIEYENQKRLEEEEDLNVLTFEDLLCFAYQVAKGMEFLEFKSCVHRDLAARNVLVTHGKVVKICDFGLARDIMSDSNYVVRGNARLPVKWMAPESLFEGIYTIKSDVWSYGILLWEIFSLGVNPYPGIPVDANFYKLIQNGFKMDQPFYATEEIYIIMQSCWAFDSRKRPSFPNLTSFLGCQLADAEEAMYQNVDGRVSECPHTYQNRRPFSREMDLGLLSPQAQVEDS
Description: (§1) The assays were performed in U-bottom 384-well plates. The final assay volume was 30 μl prepared from 15 μl additions of enzyme and substrates (fluoresceinated FLT3 substrate peptide and ATP) and test compounds in assay buffer (100 mM HEPES pH 7.4, 10 mM MgCl2, 0.015% Brij35 and 4 mM DTT). The reaction was initiated by the combination of FLT3 with substrates and test compounds. The reaction was incubated at room temperature for 60 min. and terminated by adding 30 μl of 35 mM EDTA to each sample. The reaction mixture was analyzed on the Caliper LabChip 3000 by electrophoretic separation of the fluorescent substrate and phosphorylated product. Inhibition data were calculated by comparison to no enzyme control reactions for 100% inhibition and vehicle-only reactions for 0% inhibition. The final concentration of reagents in the assays is ATP, 200 μM, FL-peptide, 1.5 μM; FLT3, 4.5 nM and DMSO, 1.6%. Dose response curves were generated to determine the concentration required inhibiting 50% of kinase activity (IC50). Compounds were dissolved at 10 mM in dimethylsulfoxide (DMSO) and evaluated at eleven concentrations, each in duplicate. IC50 values were derived by non-linear regression analysis.

CDK2E = CDK2E (Homo sapiens, UniProt P24941); assay: CDK 2/Cyclin E Kinase Assay; conditions: ATP 30 μM; CDK2E 0.2 nM; Caliper LabChip 3000
Description: A. CDK 2/Cyclin E Kinase Assay
as §1, with “(fluoresceinated CDK2E” for “(fluoresceinated FLT3”, “of bacterially expressed, CDK2E” for “of FLT3”, “phosphorylated product” for “phosphorylated product.”, “ATP, 30 μM;” for “ATP, 200 μM,”, “μM; CDK2E, 0.2 nM;” for “μM; FLT3, 4.5 nM”

GSK3-β = target: T2, GSK3-β (Homo sapiens, UniProt P49841); assay: GSK3-β kinase assay; conditions: ATP 30 μM; His-GSK3B 2.4 nM; Caliper LabChip 3000; read-out: GSK-3β IC50
T2 construct: His
Description: (§2) The assays were performed in U-bottom 384-well plates. The final assay volume was 30 μl prepared from 15 μl additions of enzyme and substrates (fluoresceinated peptide FL-GSK substrate and ATP) and test compounds in assay buffer (100 mM HEPES pH 7.2, 10 mM MgCl2, 0.015% Brij35, 25 mM β-glycerolphosphate and 4 mM DTT). The reaction was initiated by the combination of GSK3-β with substrates and test compounds. The reaction was incubated at room temperature for 60 min. and terminated by adding 30 μl of 35 mM EDTA to each sample. The reaction mixture was analyzed on the Caliper LabChip 3000 (Caliper, Hopkinton, Mass.) by electrophoretic separation of the fluorescent substrate and phosphorylated product Inhibition data were calculated by comparison to no enzyme control reactions for 100% inhibition and vehicle-only reactions for 0% inhibition. The final concentration of reagents in the assays is ATP, 30 μM; FL-GSK substrate, 1.5 μM; His-GSK3B, 2.4 nM; and DMSO, 1.6%.

GST-Met = GST-Met (Homo sapiens, UniProt P08581); assay: Met Kinase Assay; conditions: 1 μM ATP; 33P γ-ATP, poly(Glu/Tyr); 1 h at 30° C.
Description: Kinase reactions consisted of 0.75 ng of baculovirus expressed GST-Met, 3 ug poly(Glu/Tyr) (Sigma), 0.12 μCi 33P γ-ATP, 1 μM ATP in 30 μl kinase buffer (20 mm TRIS-C1, 5 mM MnCl2, 0.1 mg/ml BSA, 0.5 mM DTT). Reactions were incubated for 1 h at 30° C. and stopped by the addition of cold trichloroacetic acid (TCA) to a final concentration 8%. TCA precipitates were collected onto GF/C unifilter plates using a Filtermate universal harvester and the filters were quantitated using a TopCount 96-well liquid scintillation counter. Dose response curves were generated to determine the concentration required to inhibit 50% of kinase activity (IC50). Compounds were dissolved at 10 mM in dimethylsulfoxide (DMSO) and evaluated at seven concentrations, each in triplicate.

IGF1-receptor = IGF1-receptor (Homo sapiens, UniProt P08069); assay: IGF1-Receptor Tyrosine Kinase Assay; conditions: ATP 25 μM; IGF1-Receptor 14 nM; Caliper LabChip 3000; read-out: IGF1R IC50
Description: D. IGF1-Receptor Tyrosine Kinase Assay
as §1, with “(fluoresceinated IGF1R” for “(fluoresceinated FLT3”, “mM MnCl2,” for “mM MgCl2,”, “of IGF1-receptor” for “of FLT3”, “ATP, 25 μM;” for “ATP, 200 μM,”, “μM; IGF1-Receptor, 14 nM;” for “μM; FLT3, 4.5 nM”, “regression analysis” for “regression analysis.”

JAK2 = JAK2 (Homo sapiens, UniProt O60674); assay: JAK2 kinase assay; conditions: ATP 30 μM; activated JAK2; Caliper LabChip 3000
Description: as §2, with “FL-JAK2” for “FL-GSK”, “activated JAK2” for “GSK3-β”, “product.” for “product”, “FL-JAK2 peptide,” for “FL-GSK substrate,”, “[…], 2.6” for “His-GSK3B, 2.4”

Sequence of JAK2 (O60674 whole entry): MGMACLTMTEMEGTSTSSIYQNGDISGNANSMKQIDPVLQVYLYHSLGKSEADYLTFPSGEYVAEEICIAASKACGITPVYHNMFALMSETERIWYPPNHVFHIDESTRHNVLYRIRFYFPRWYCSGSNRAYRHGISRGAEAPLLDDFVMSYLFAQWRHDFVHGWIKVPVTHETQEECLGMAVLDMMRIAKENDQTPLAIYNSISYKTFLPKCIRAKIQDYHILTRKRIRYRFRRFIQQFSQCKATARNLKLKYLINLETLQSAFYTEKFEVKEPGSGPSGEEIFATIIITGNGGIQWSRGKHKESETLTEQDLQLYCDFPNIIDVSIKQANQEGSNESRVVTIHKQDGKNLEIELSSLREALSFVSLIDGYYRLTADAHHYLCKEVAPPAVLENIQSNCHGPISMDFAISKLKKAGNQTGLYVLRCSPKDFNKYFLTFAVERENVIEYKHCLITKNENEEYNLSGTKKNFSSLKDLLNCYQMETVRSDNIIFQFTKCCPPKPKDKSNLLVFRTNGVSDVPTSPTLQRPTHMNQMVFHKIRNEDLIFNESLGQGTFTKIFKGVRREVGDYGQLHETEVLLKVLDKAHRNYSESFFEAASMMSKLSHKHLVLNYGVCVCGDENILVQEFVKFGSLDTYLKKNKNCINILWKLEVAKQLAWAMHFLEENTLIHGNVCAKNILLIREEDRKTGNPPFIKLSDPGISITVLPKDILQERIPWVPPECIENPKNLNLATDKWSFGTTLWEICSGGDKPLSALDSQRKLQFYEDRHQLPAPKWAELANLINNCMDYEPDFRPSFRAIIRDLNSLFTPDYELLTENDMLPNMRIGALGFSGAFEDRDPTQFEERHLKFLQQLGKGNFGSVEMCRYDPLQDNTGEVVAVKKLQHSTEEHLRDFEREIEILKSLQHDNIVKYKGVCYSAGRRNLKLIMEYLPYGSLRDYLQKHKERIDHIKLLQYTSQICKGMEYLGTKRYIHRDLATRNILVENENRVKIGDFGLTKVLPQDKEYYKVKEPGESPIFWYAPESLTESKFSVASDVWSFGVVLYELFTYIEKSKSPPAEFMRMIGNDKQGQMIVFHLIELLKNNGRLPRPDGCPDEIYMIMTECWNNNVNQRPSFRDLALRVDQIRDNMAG
T2 sequence (P49841 whole entry): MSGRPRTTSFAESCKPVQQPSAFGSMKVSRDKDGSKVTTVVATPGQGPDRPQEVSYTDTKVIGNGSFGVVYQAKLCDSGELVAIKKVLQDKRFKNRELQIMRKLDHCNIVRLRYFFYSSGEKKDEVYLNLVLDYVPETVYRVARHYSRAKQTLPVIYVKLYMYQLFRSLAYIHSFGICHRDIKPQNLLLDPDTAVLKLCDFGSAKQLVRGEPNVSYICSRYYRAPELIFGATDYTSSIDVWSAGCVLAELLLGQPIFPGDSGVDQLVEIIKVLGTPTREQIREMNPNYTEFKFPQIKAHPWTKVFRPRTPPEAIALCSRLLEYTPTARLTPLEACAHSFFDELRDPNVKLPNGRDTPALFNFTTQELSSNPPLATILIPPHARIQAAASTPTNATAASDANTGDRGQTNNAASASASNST
Sequence of IGF1-receptor (P08069 31-1367): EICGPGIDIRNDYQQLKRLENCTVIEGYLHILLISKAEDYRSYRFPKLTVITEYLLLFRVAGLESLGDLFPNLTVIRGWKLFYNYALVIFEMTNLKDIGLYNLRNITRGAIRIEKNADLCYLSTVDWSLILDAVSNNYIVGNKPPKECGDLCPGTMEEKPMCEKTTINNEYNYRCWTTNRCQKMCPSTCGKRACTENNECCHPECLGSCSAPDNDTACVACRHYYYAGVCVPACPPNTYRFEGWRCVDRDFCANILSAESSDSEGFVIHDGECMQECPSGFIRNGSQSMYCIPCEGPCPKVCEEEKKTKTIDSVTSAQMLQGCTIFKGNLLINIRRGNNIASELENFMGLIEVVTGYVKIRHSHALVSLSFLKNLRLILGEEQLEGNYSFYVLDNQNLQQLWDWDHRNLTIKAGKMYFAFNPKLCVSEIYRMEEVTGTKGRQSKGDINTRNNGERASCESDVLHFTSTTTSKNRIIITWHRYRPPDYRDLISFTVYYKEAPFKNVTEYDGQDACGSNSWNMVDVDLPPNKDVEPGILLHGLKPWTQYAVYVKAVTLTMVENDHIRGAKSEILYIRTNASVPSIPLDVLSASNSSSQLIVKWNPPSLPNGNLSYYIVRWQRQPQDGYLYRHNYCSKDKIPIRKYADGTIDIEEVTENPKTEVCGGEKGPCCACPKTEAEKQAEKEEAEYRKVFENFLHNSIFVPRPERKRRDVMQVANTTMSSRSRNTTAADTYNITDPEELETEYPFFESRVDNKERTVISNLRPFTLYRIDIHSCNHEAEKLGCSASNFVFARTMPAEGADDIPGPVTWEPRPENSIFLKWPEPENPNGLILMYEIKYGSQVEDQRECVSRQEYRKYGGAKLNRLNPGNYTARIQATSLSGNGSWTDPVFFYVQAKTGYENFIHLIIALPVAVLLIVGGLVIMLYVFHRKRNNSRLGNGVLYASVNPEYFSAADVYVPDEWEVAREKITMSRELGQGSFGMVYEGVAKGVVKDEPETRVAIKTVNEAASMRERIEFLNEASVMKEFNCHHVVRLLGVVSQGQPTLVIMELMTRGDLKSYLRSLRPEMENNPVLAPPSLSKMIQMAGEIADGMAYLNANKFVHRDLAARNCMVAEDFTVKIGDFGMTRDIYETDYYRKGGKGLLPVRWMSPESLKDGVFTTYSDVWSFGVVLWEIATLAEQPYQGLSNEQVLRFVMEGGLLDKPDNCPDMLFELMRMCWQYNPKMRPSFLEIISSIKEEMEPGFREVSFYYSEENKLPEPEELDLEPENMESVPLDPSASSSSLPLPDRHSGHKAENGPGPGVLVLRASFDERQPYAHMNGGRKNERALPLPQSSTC
Sequence of GST-Met (P08581 25-1390): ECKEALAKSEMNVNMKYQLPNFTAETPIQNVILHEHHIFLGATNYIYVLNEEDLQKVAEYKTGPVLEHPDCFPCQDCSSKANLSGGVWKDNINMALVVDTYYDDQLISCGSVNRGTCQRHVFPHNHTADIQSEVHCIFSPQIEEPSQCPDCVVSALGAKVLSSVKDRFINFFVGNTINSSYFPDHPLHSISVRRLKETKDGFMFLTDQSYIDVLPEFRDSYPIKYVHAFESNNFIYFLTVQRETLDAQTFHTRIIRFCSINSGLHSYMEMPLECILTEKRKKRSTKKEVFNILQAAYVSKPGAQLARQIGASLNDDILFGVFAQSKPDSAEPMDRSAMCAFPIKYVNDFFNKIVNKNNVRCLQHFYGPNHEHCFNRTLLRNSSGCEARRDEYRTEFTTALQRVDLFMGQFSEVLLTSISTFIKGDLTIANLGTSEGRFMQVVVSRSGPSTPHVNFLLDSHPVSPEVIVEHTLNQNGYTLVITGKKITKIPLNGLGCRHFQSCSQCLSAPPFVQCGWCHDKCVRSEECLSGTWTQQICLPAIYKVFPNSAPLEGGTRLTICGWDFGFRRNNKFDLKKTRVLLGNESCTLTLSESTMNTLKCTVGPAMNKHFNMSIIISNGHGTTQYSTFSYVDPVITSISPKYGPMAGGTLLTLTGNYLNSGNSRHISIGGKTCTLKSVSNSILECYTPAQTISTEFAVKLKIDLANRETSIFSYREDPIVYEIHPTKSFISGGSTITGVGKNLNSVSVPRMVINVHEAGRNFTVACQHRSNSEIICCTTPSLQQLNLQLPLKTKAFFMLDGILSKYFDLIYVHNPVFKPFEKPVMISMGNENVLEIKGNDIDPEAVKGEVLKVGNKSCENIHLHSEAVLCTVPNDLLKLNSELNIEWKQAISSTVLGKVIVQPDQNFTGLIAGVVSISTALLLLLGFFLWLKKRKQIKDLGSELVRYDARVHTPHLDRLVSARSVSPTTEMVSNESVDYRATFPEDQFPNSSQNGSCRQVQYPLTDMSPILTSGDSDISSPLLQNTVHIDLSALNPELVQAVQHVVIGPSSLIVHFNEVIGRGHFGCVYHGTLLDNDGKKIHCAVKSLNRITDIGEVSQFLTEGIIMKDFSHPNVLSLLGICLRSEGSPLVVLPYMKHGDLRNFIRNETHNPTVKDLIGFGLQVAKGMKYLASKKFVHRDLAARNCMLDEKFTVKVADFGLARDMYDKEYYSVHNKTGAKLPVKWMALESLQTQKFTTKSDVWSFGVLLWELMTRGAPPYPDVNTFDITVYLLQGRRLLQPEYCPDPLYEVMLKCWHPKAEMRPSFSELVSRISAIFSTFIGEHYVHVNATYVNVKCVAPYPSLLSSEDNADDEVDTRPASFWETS

Structure (SMILES)	IC50 (FLT3) [nM]	IC50 (CDK2E) [nM]	IC50 (GSK3-β) [nM]	IC50 (GST-Met) [nM]	IC50 (IGF1-receptor) [nM]	IC50 (JAK2) [µM]
O=C(c1ccc(F)nc1)N1CCC[C@H]1c1nc(Nc2cc(C3CC3)[nH]n2)c2cccn2n1 [Example 1, (S)-(2-(4-(5-Cyclopropyl-1H-pyrazol-3-ylamino)pyrrolo[1,2-f][1,2,4]triazin-2-yl)pyrrolidin-1-yl)(6-fluoropyridin-3-yl)methanone]	29	1870	290	28	–	–
O=C(c1nccs1)N1CCC[C@H]1c1nc(Nc2cc(C3CC3)[nH]n2)c2cccn2n1 [Example 2, (S)-(2-(4-(5-Cyclopropyl-1H-pyrazol-3-ylamino)pyrrolo[1,2-f][1,2,4]triazin-2-yl)pyrrolidin-1-yl)(thiazol-2-yl)methanone]	1	88	24	170	5	–
CC(=O)N1CCC[C@H]1c1nc(Nc2cc(C3CC3)[nH]n2)c2cccn2n1 [Example 4, (S)-1-(2-(4-(5-Cyclopropyl-1H-pyrazol-3-ylamino)pyrrolo[1,2-f][1,2,4]-triazin-2-yl)pyrrolidin-1-yl)ethanone]	1	5	20	1780	135	–
O=C(C1CCNCC1)N1CCC[C@H]1c1nc(Nc2cc(C3CC3)[nH]n2)c2cccn2n1 [Example 6, (S)-(2-(4-(5-Cyclopropyl-1H-pyrazol-3-ylamino)pyrrolo[1,2-f][1,2,4]triazin-2-yl)pyrrolidin-1-yl)(piperidin-4-yl)methanone]	97	615	92	10500	4050	10.7
O=C(c1cc[nH]n1)N1CCC[C@H]1c1nc(Nc2cc(C3CC3)[nH]n2)c2cccn2n1 [Example 7, (S)-(2-(4-(5-Cyclopropyl-1H-pyrazol-3-ylamino)pyrrolo[1,2-f][1,2,4]triazin-2-yl)pyrrolidin-1-yl)(1H-pyrazol-3-yl)methanone]	4	54	51	1170	68	0.036
O=C(c1cnccn1)N1CCC[C@@H]1c1nc(Nc2cc(C3CC3)[nH]n2)c2cccn2n1 [Example 12, (R)-(2-(4-(5-Cyclopropyl-1H-pyrazol-3-ylamino)pyrrolo[1,2-f][1,2,4]triazin-2-yl)pyrrolidin-1-yl)(pyrazin-2-yl)methanone]	6	256	3	10800	4930	4.48
CC(C)(C)OC(=O)N1CCC(C(=O)N2CCC[C@@H]2c2nc(Nc3cc(C4CC4)[nH]n3)c3cccn3n2)CC1 [Example 13, (R)-tert-Butyl 4-(2-(4-(5-cyclopropyl-1H-pyrazol-3-ylamino)pyrrolo[1,2-f][1,2,4]triazin-2-yl)pyrrolidine-1-carbonyl)piperidine-1-carboxylate]	308	17400	4450	–	314	22
O=C(c1nccs1)N1CCC[C@@H]1c1nc(Nc2cc(C3CC3)[nH]n2)c2cccn2n1 [Example 15, (R)-(2-(4-(5-Cyclopropyl-1H-pyrazol-3-ylamino)pyrrolo[1,2-f][1,2,4]triazin-2-yl)pyrrolidin-1-yl)(thiazol-2-yl)methanone]	24	162	11	6330	2520	0.324
